{
  "source": "patent US20030162734A1",
  "about": "“Modulation of DENN-MADD expression and interactions for treating neurological disorders” (priority 2001, published 2003)",
  "key": {"JNK3": {"test_system": "JNK3", "conditions": "cited from earlier work"}, "[1]": {"test_system": "neuronal PC12 cells and sympathetic neurons", "conditions": "cited from earlier work"}, "[2]": {"test_system": "mouse primary hippocampal neurons", "experiment": "TUNEL cell death assay in primary hippocampal neurons", "type": "cell-based", "conditions": "for Aβ-induced cell death (TUNEL positive cells): CEP11004 with 25 μM Aβ(1-42), 24 h, Control-AS or DENN-AS treated hippocampal cultures", "procedure": "Primary mouse and rat hippocampal neurons were prepared from newborn C57B1/6 mouse or Sprague-Dawley rat pups. Briefly, hippocampi were dissected out, minced and digested with 100 U papain and 0.2 μg/ml DNaseI. Following digestion, cells were 'triturated with fire-polished Pasteur pipets and centrifuged in media containing 20 μg/ml BSA. Cells were plated on collagen-coated or poly-lysine coated plates at a density of 3×10^6 cells/ml in Neurobasal medium with B27 supplement and antibiotics (Life Technologies, Gaithersburg, Md.). One day after plating, cells were exposed to 5 μM cytosine arabinoside for 4 d to kill dividing cells. Experiments were performed after 6-8 days in vitro (DIV).\n(§1) (PI) for cell death or GFP and phycoerythrin (PE)-conjugated annexin V for early apoptosis. The percentage of cell death was quantified as those cells expressing GFP and either annexin V or 7-AAD staining relative to total GFP expressing cells. Experiments were performed in triplicate with 10,000 events counted. TUNEL staining was performed according to manufacturer's instructions (Roche).\nTo assess cell death in neuronal cultures exposed to anti-sense oligonucleotides and Aβ, TUNEL staining was performed (FIG. 9B). […] However, due to the increased TUNEL staining with DENN-AS treated cultures, the overall cell death with Aβ was 10-15% greater in these cultures (FIG. 9C). DENN-AS treatment alone increased cell death by 20%. […] Furthermore, the level of cell death observed with Aβ was abrogated by exposing neuronal cultures to 1 βM CEP11004."}, "JNK [3]": {"test_system": "JNK", "experiment": "JNK immunoprecipitation in vitro kinase assay (GST-c-Jun substrate) from Aβ-exposed N2A clones", "type": "cell-based, murine", "conditions": "1 μM CEP11004 with 25 μM Aβ(1-42), 24 h; N2A clones expressing GFP or DENN", "procedure": "For kinase assays, cells were exposed to 25 μM Aβ(1-40) in the absence or presence of 1 μM CEP11004 for the specified duration. Cell extracts were prepared, incubated with 5 μl JNK antibody for 4 h at 4° C. and precipitated with 60 μl 50% slurry protein A/G sepharose overnight at 4° C. Immunoprecipitates were washed, then incubated with 1 μg GST-cJun (1-79) and 50 μM ATP in 40 μl for 30 min at 30° C. Reactions were terminated with 40 μl Laemmli buffer, boiled for 4 min, centrifuged and 40 μl was loaded onto 10% SDS-PAGE, transferred to nitrocellulose and probed with phospho-c-Jun (Ser73) antibody.\nN2A clones expressing GFP or DENN were exposed to 25 μM Aβ(1-42) either in the absence or presence of 1 μM CEP11004. Previously, inhibitiori of Aβ-induced cell death in neuronal PC12 cells and sympathetic neurons required less than 300 nM CEP1347 (Troy et al., 2001). After 24 h Aβ exposure, JNK was immunoprecipitated from cell extracts and incubated with GST-c-Jun substrate and ATP in an in vitro kinase assay. The reactions were immunoblotted with antibody specific to phosphorylated c-Jun. […] Thus, reduction of cell death and JNK activity by JNK inhibitors in DENN overexpressing cell cultures supports DENN involvement in c-Jun activation and cellular apoptosis."}, "NSC19 cells [4]": {"test_system": "NSC19 cells", "experiment": "Annexin V FACS apoptosis assay, NSC19 cells overexpressing DENN or DENN mutants, Aβ(1-40) with or without SB203580", "type": "cell-based, mouse", "conditions": "10 μM SB203580 with Aβ(1-40)", "from_the_text": "In contrast to primary CNS cultures, NSC19 are more readily transfectable and highly responsive to apoptosis (Smirnova et al., 1998; Citron et al, 1997). Cells were maintained in high glucose Dulbecco's Modified Eagle's Medium (DMEM) (GIBCO-BRL/Life Technologies, Rockville, Md.) supplemented with 10% fetal bovine serum (FBS) and 1% streptomycin/penicillin. Neuro2A cells (CCL-131), C0S7 (CRL-1651) and human embryonic kidney 293 (CRL-1573) cells were acquired from ATCC. Murine neuroblastoma Neuro2A (N2A) were grown in MEM supplemented with 10% FBS, while COS7 and 293 were maintained in DMEM supplemented with 10% FBS. Cells were plated (5 ×10^5 cells/ml) in 35-mm dishes and transfected with 1 μg total DNA using Effectene or SuperFect (Qiagen) as described by the manufacturer. […]\nCells were analyzed by fluorescence-activated cell sorting (FACS) analysis on a FACSTAR PLUS (Becton-Dickinson) and analyzed with Cell Quest software. […]\nas §1, with “TUNEL staining was performed according to manufacturer's instructions (Roche).” left out"}, "JNK [5]": {"test_system": "JNK", "conditions": "at 10 μM; cited from earlier work"}, "DENN [6]": {"test_system": "DENN", "experiment": "Western blot of endogenous DENN in stressed neuroblastoma cultures", "type": "cell-based, mouse", "conditions": "for DENN expression in cultures treated with oxidative stress factors: data not shown", "procedure": "(§2) A) NSC19 and N2A cells were exposed to 0.1% BSA (Control) or 20 μM fibrillar Aβ(1-40) for 48 h. Cell extracts (100 μg) were immunoblotted with DENN antibody and reprobed with actin antibody. DENN reactive bands appear at ˜200 kD and ˜140 kD. DENN protein expression is higher in NSC19 relative to N2A cells. Aβ exposure dramatically reduces DENN protein expression. Similar results were obtained in three independent experiments. B) Total RNA from Control and Aβ exposed N2A cultures was extracted and RT-PCR using either DENN or actin specific primers was performed. […] Results are representative of three independent experiments. C) Primary rat hippocampal neurons were exposed to 25 μM Aβ(1-42) for 24 h, fixed in 4% PFA and stained with antibodies specific for DENN, phospho-JNK (P-JNK) and counterstained with Hoechst 33342 for nuclei.\nNSC 19 cells were harvested after the appropriate treatments by scraping into cold PBS and centrifuging at 1500 ×g for 5 min at 4° C. Cells were then lysed in buffer A (20 mM Tris-Cl, pH 7.5, 1% Triton X-100, 0.5% NP-40, 0.1 M NaCl, 20 mM β-glycerophosphate, 2 mM EDTA, 2 mM sodium pyrophosphate, 10% glycerol, 10 μg/ml leupeptin and 2 mM phenylmethylsulfonyl fluoride) for 20 min on ice followed by four 5-second sonication bursts on ice. Lysates were centrifuged at 14,000 ×g for 10 min at 4° C. Protein concentrations were measured by the Bradford (1976) assay using bovine serum albumin (BSA) standards. Approximately 50 μg of cell lysates were mixed with 2Xsample buffer and boiled for 5 min. Samples were resolved by 10% SDS-polyacrylamide gel electrophoresis (PAGE), transferred to nitrocellulose membranes, blocked in 5% skim milk and 1% BSA in 1XTBS, and incubated overnight at 4° C. with primary antibody at indicated dilutions. Blots were then washed with TBS buffer containing 0.15% Tween 20 (washing buffer), incubated with a 1:1000 dilution of anti-mouse or anti-rabbit IgG-conjugated horseradish peroxidase for 1 h at room temperature, washed again and processed by ECL detection (Amersham). […]"}, "NSC19 cells [7]": {"test_system": "NSC19 cells", "experiment": "FACS cell death assay (GFP and PI positive cells) after Aβ(1-40) exposure", "type": "cell-based, mouse", "conditions": "GFP-expressing NSC19 cultures, Aβ for 48 h", "procedure": "Lyophilized, HPLC purified β-amyloid, Aβ25-35, Aβ1-40 , Aβ1-42 and Aβ40-1 were obtained from either Sigma Chemical Co., U.S. Peptide (Fullerton, Calif.) or Bachem (Torrance, Calif.), respectively. Peptides were reconstituted in double-distilled H2O at 10 mM Aβ. To age the β-amyloid in vitro and produce aggregated, fibrillar Aβ, an aliquot of the Aβ stock solution was dissolved at the indicated concentration in culture medium and incubated at 37° C. for 3 to 5 days. Cells were incubated with the appropriate Aβ peptide concentration for the indicated times and examined for immunofluorescence or cell death assay.\nCells were analyzed by fluorescence-activated cell sorting (FACS) analysis on a FACSTAR PLUS (Becton-Dickinson) and analyzed with Cell Quest software. FACS analysis for two color analysis used GFP and either 7-amino-actinomycin (7-AAD) or propidium iodide\nas §1\nNeurotoxicity induced by Aβ(1-40) exposure was further examined using clonal cells expressing GFP-fused mutant forms of DENN. […]"}, "DENN [8]": {"test_system": "DENN", "experiment": "RT-PCR of DENN RNA in Aβ-exposed N2A cultures", "type": "cell-based, murine", "conditions": "N2A cells", "procedure": "as §2\nTotal RNA was purified using the RNeasy miniprep kit (Qiagen) and resuspended in 50 μt RNase free water. For each RT-PCR, 1 μg RNA was subjected to One-Step RT-PCR using Omniscript and Sensiscript Reverse transcriptases, HotStarTaq DNA polymerase and 0.5 μM of DENN primers: sense, SEQ ID NO: 6: 5′-[…]-3′ and antisense, SEQ ID NO: 1: 5′-[…]-3′, for 30 cycles with the following conditions: 94° C., 30 s; 60° C., 1 min; 72° C., 1 min. Human and murine actin prim were supplied by Clontech.\nRNA expression was compared in N2A cells (FIG. 6B)."}},
  "note": "“Also recorded” adds a separate entry of the source.",
  "data": [
    {"compound": "CCSCc1ccc2c(c1)c1c3c(c4c5cc(CSCC)ccc5n5c4c1n2[C@H]1C[C@](O)(C(=O)OC)[C@]5(C)O1)CNC3=O", "note": "[CEP1347]", "values": [
      {"measurement": "JNK3 activation", "setting": "JNK3", "value": "inhibit JNK3 activation"},
      {"measurement": "concentration required for inhibition of Aβ-induced cell death", "setting": "[1]", "value": "less than 300 nM"}
    ]},
    {"compound": "CCSCc1ccc2c(c1)c1c3c(c4c5cc(CSCC)ccc5n5c4c1n2C1C[C@](O)(C(=O)OC)[C@]5(C)O1)CNC3=O", "note": "[CEP11004]", "values": [
      {"measurement": "effect on DENN AS-induced cell death", "setting": "[2]; CEP11004, DENN-AS treated hippocampal cultures", "value": "little effect"},
      {"measurement": "Aβ-induced cell death (TUNEL positive cells)", "setting": "[2]", "value": "abrogated"},
      {"measurement": "Aβ-induced cell death (TUNEL positive cells)", "setting": "[2]; listed as CEP1004", "value": "inhibits effect of Aβ-induced cell death"},
      {"measurement": "JNK activity (c-Jun phosphorylation)", "setting": "JNK [3]", "value": "four-fold; also recorded: inhibits Aβ-induced c-Jun phosphorylation"}
    ]},
    {"compound": "C[S+]([O-])c1ccc(-c2nc(-c3ccc(F)cc3)c(-c3ccncc3)[nH]2)cc1", "note": "(centres unmarked) [SB203580, 4-(4-fluorophenyl)-2-(4-methylsulfinylphenyl)-5-(4-pyridyl)-1H-imidazole]", "values": [
      {"measurement": "cell death/apoptosis in DENN-JBD transfected cells with Aβ/SB203580 co-treatment", "setting": "NSC19 cells [4]; NSC19 DENN-JBD transfectants, p<0.05", "value": "reproducible increase in cell death; also recorded: slight increase in apoptosis"},
      {"measurement": "apoptotic response (GFP and annexin V positive cells) to Aβ in cells overexpressing DENN or DENN-CT", "setting": "NSC19 cells [4]; NSC19 cells overexpressing DENN or DENN-CT, p<0.01", "value": "significantly attenuated apoptotic response; also recorded: decreased"},
      {"measurement": "JNK activity inhibition", "setting": "JNK [5]", "value": "JNK activity is also inhibited"}
    ]},
    {"compound": "N[C@@H](CCC(=O)O)C(=O)O", "note": "[glutamate]", "values": [
      {"measurement": "DENN expression in cultures treated with oxidative stress factors", "setting": "DENN [6]", "value": "reduction in DENN expression"}
    ]},
    {"compound": "OO", "note": "[hydrogen peroxide]", "values": [
      {"measurement": "DENN expression in cultures treated with oxidative stress factors", "setting": "DENN [6]", "value": "reduction in DENN expression"}
    ]},
    {"compound": "Aβ(1-40): β-amyloid peptide 1-40, aged in vitro to aggregated, fibrillar form", "values": [
      {"measurement": "increase in cell death after Aβ exposure", "setting": "NSC19 cells [7]", "value": "five-fold"}
    ]},
    {"compound": "Aβ: β-amyloid peptide; per FIG. 6 legend 20 μM fibrillar Aβ(1-40)", "values": [
      {"measurement": "reduction in DENN RNA expression (RT-PCR)", "setting": "DENN [8]", "value": "four-fold"},
      {"measurement": "reduction of endogenous DENN protein", "setting": "DENN [6]; NSC19 and N2A cells, 20 μM fibrillar Aβ(1-40), 48 h", "value": "approximately 3 fold"}
    ]}
  ]
}
